Reference: US9540702B2, “Stabilization of enzymes with stable coenzymes” (Roche Diabetes Care, Inc., priority 2009, dated 2017)

Key:
[1] = biological target: L lactate dehydrogenase (from rabbit) (Oryctolagus cuniculus, UniProt P13491); experiment: DSC of coenzyme binding; settings: 3.8 mM ligand; 0.1 M Tris buffer, pH 8.5
[2] = biological target: T1, diaphorase (from porcine heart) (Sus scrofa, UniProt P09623); experiment: Diaphorase activity in liquid reagent for lactate dehydrogenase stored at 25° C.; assay type: biochemical; settings: liquid reagent stored at 25° C.; 2 mM carbaNAD or 0.2 mM NAD; various storage times
T1 construct: 3 U/ml diaphorase (from porcine heart); from tissue; host or cells: porcine heart
T1 sequence (P09623 36-509): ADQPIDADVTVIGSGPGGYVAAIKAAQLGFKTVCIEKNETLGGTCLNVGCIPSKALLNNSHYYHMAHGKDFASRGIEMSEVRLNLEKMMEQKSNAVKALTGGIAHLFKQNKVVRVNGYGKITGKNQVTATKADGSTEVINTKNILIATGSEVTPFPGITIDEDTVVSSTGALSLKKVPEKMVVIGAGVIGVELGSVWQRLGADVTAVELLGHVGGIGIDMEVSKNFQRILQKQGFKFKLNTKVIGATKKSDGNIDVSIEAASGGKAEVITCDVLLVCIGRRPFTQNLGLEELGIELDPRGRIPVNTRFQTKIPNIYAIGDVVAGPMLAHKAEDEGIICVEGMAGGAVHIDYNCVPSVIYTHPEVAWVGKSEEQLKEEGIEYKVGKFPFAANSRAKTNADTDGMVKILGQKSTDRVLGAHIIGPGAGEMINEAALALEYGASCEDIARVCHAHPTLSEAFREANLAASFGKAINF
Experimental: A liquid reagent which, among others, contained diaphorase, carbaNAD, a tetrazolium salt and lactate was used to determine the activity of lactate dehydrogenase. The detection reagent which was stored in solution at 25° C. contained the following ingredients:
3 U/ml diaphorase (from porcine heart)
2 mM carbaNAD or 0.2 mM NAD
2 mM tetrazolium salt WST-3
0.1 M tricine/HCl, pH 8.8

[3] = biological target: D-lactate dehydrogenase (Lactobacillus delbrueckii subsp. bulgaricus, UniProt P26297); experiment: DSC of coenzyme binding; settings: 3.8 mM ligand; 0.1M Tris buffer, pH 7.5
[4] = tested on: diaphorase; experiment: Enzyme activity in test strips stored up to 18 weeks (Table 7); assay type: biochemical
Experimental: (§1) In order to evaluate the stabilization of glucose dehydrogenase and diaphorase by carbaNAD, a number of test strips were prepared in analogy to Example 5.
(§2) The test strips were stored over a period of 18 weeks at temperatures of 5° C. (KS, refrigerator), 25° C. (RT), 30° C. (GT), 35° C. (DT) and 45° C. (HT), and the enzyme activity in the test strips was determined at the start of storage (0 weeks), after 6 weeks, after 9 weeks, after 12 weeks and after 18 weeks. The results are shown in Table 6 (glucose dehydrogenase) and in Table 7 (diaphorase).

[5] = biological target: Glucose dehydrogenase mutant2 (Bacillus subtilis, UniProt P12310, A229V/A236S/E170K/Q252L); experiment: Enzyme activity in test strips stored up to 18 weeks (Table 6); assay type: biochemical
Experimental: as §1, §2

[6] = biological target: glucose dehydrogenase (GlucDH) (Bacillus subtilis, UniProt P12310); experiment: Stability of glucose dehydrogenase with coenzyme in a liquid phase at 50° C.; assay type: biochemical; settings: 10 mg/ml GlucDH, 12 mg/ml coenzyme, pH 8.5
Experimental: FIGS. 9A and 9B are graphical illustrations of the stability of glucose dehydrogenase in the presence of NAD or cNAD in a liquid phase at 50° C. for a period of 4 days (FIG. 9A) or 14 days (FIG. 9B) with test conditions of 10 mg/ml GlucDH; 12 mg/ml NAD or cNAD; buffer: 0.1 M Tris, 1.2 M NaCl, pH 8.5; temperature 50° C.
After 95 hours at 50° C. the residual activity of glucose dehydrogenase in the presence of the native coenzyme NAD is […], whereas the residual activity of GlucDH in the presence of the artificial coenzyme cNAD is 75% (FIG. 9A). After 336 hours storage at 50° C. the residual activity of the enzyme stabilized with NAD is now only about 1%; a residual activity of still about 70% is observed for the enzyme stored in the presence of cNAD. The corresponding SDS gels also show a change in the GlucDH bands in the presence of the native coenzyme NAD: new bands are seen at higher molar masses and there is a shift in the 30 kDa band.

[7] = biological target: GlucDH_E96G_E170K (GlucDH-mut1) (Bacillus subtilis, UniProt P12310, A229V/A236S/E170K/E96G/Q252K); experiment: Residual activity of GlucDH mutant 1 after storage with coenzyme; assay type: biochemical; settings: 24 weeks at 32° C. and 85% relative air humidity
Experimental: carbaNAD (FIG. 1A) or NAD were added to the glucose-specific GlucDH. These formulations were each applied to Pokalon foils (Lonza) and, after drying, stored under warm and humid conditions (32° C., 85% relative air humidity). Subsequently, the reaction kinetics and the function curve were determined at regular intervals. In parallel at each of the measurement times a cNAD/NAD analysis and a determination of the residual activity of the enzyme were carried out.
If a mutant is used instead of the wild-type enzyme (from Bacillus subtilis), it is possible to further increase the residual activity of GlucDH. After 24 weeks storage at 32° C. and 85% relative air humidity in the presence of cNAD, the residual activity of a mutant GlucDH_E96G_E170K with the amino acid substitutions glutamic acid→glycine at position 96 and glutamic acid→lysine at position 170 (GlucDH-mut1) of the wild-type enzyme is about 70%, whereas the residual activity of a mutant GlucDH_E170K_K252L with the amino acid substitutions glutamic acid→lysine at position 170 and lysine→leucine at position 252 (GlucDH-mut2) is about 50% (FIG. 8).

NC(=O)c1ccc[n+]([C@@H]2C[C@H](COP(=O)([O-])OP(=O)(O)OC[C@H]3O[C@@H](n4cnc5c(N)ncnc54)[C@H](O)[C@@H]3O)[C@@H](O)[C@H]2O)c1 [carbaNAD]
TM [1]: 60.2 °C
ΔHcal [1]: 66 kcal/mol
residual activity of diaphorase compared to formulation containing NAD [2]: considerably increased residual activity
TM [3]: 59.1 °C
ΔHcal [3]: 19 kcal/mol
Enzyme activity, diaphorase ([4]; 0 weeks (start of storage)): 4.6 U/cm^2
Enzyme activity, diaphorase ([4]; DT (35° C.), 6 weeks): 3.4 U/cm^2
Enzyme activity, diaphorase ([4]; DT (35° C.), 9 weeks): 4.4 U/cm^2
Enzyme activity, diaphorase ([4]; DT (35° C.), 12 weeks): 4.0 U/cm^2
Enzyme activity, diaphorase ([4]; DT (35° C.), 18 weeks): 5.3 U/cm^2
Enzyme activity, diaphorase ([4]; GT (30° C.), 12 weeks): 4.3 U/cm^2
Enzyme activity, diaphorase ([4]; GT (30° C.), 18 weeks): 6.2 U/cm^2
Enzyme activity, diaphorase ([4]; HT (45° C.), 6 weeks): 3.9 U/cm^2
Enzyme activity, diaphorase ([4]; HT (45° C.), 9 weeks): 3.8 U/cm^2
Enzyme activity, diaphorase ([4]; KS (5° C.), 6 weeks): 4.4 U/cm^2
Enzyme activity, diaphorase ([4]; KS (5° C.), 9 weeks): 5.2 U/cm^2
Enzyme activity, diaphorase ([4]; KS (5° C.), 12 weeks): 4.8 U/cm^2
Enzyme activity, diaphorase ([4]; KS (5° C.), 18 weeks): 7.0 U/cm^2
Enzyme activity, diaphorase ([4]; RT (25° C.), 6 weeks): 4.5 U/cm^2
Enzyme activity, diaphorase ([4]; RT (25° C.), 9 weeks): 5.1 U/cm^2
Enzyme activity, diaphorase ([4]; RT (25° C.), 12 weeks): 4.6 U/cm^2
Enzyme activity, diaphorase ([4]; RT (25° C.), 18 weeks): 6.7 U/cm^2
Enzyme activity, glucose dehydrogenase ([5]; 0 weeks (start of storage)): 19.8 U/cm^2
Enzyme activity, glucose dehydrogenase ([5]; DT (35° C.), 6 weeks): 19.8 U/cm^2
Enzyme activity, glucose dehydrogenase ([5]; DT (35° C.), 9 weeks): 20.2 U/cm^2
Enzyme activity, glucose dehydrogenase ([5]; DT (35° C.), 12 weeks): 17.2 U/cm^2
Enzyme activity, glucose dehydrogenase ([5]; DT (35° C.), 18 weeks): 16.9 U/cm^2
Enzyme activity, glucose dehydrogenase ([5]; GT (30° C.), 12 weeks): 17.6 U/cm^2
Enzyme activity, glucose dehydrogenase ([5]; GT (30° C.), 18 weeks): 16.8 U/cm^2
Enzyme activity, glucose dehydrogenase ([5]; HT (45° C.), 6 weeks): 19.0 U/cm^2
Enzyme activity, glucose dehydrogenase ([5]; HT (45° C.), 9 weeks): 18.8 U/cm^2
Enzyme activity, glucose dehydrogenase ([5]; KS (5° C.), 6 weeks): 20.4 U/cm^2
Enzyme activity, glucose dehydrogenase ([5]; KS (5° C.), 9 weeks): 21.2 U/cm^2
Enzyme activity, glucose dehydrogenase ([5]; KS (5° C.), 12 weeks): 18.5 U/cm^2
Enzyme activity, glucose dehydrogenase ([5]; KS (5° C.), 18 weeks): 18.8 U/cm^2
Enzyme activity, glucose dehydrogenase ([5]; RT (25° C.), 6 weeks): 20.7 U/cm^2
Enzyme activity, glucose dehydrogenase ([5]; RT (25° C.), 9 weeks): 21.5 U/cm^2
Enzyme activity, glucose dehydrogenase ([5]; RT (25° C.), 12 weeks): 18.0 U/cm^2
Enzyme activity, glucose dehydrogenase ([5]; RT (25° C.), 18 weeks): 17.7 U/cm^2
residual activity of glucose dehydrogenase ([6]; 95 hours at 50° C.): 75%
residual activity of glucose dehydrogenase ([6]; 336 hours at 50° C.): about 70%
residual activity of GlucDH-mut1 [7]: about 70%
